The results in this text go back to patent US5478817A, “Digitoxigenin and dihydrodigitoxigenin 3β-derivatives and pharmaceutical compositions comprising same for the treatment of cardiovascular disorders” (priority 1992, dated 1995).

Where a name gives a salt, the structure may show the parent alone. Read-outs that look alike come from different tables or passages of the source.

Assay [1] deals with spontaneous hypertensive rats (MHS). In words: systolic blood pressure and heart rate in hypertensive MHS rats (indirect tail-cuff). The conditions noted are these: 20 mg/Kg/os daily for ten days in Methocel 0.5% w/v, 7 MHS rats; for SBP (systolic blood pressure): controls 171 +/- 4.5; for HR (heart rate): controls 384 +/- 11.0. Type of assay: in vivo, rat (MHS). As for the experimental part:
The ability of these compounds to lower blood pressure in adult hypertensive MHS rats was tested by the following method:
systolic blood pressure (SBP) and heart rate (HR) were measured by an indirect tail-cuff method in three-month old hypertensive MHS rats before beginning treatment (basal values). The rats were then subdivided in two groups of 7 animals each, one receiving the compound and the other, the control group, receiving only the vehicle. The compound, suspended in METHOCEL® 0.5% (w/v), for ten days, was administered daily by mouth. SBP and HR were measured daily 6 and 24 hours after the treatment. When ten-day treatment washout had been under way for at least two days, whether the treatment mantains SBP low or re-establish the basal values was verified. […]

The target in assay [2] is T1, Na^+,K^+ -ATPase receptor (Homo sapiens, UniProt P05023).
T1 construct: Na^+,K^+ -ATPase receptor purified according to Jorghensen; from tissue
In words: displacement of the specific ^3 H-ouabain binding from the Na^+,K^+ -ATPase receptor. The source says: (§1) To test the affinity for the receptor site of the Na^+,K^+ -ATPase and the agonist or inhibitory activity on the enzyme, the following tests were used: a) displacement of the specific ^3 H-ouabain binding from the Na^+,K^+ -ATPase receptor purified according to Jorghensen (Jorghensen P., BBA, 1974,356, 36) and Erdmann (Erdmann E. et al., Arzneim. Forsh., 1984, 34 (II), 1314); b) inhibition of the activity of the purified Na^+,K^+ -ATPase measured as % of hydrolysis of ^32 P-ATP in presence and in absence of the tested compound (Mall F. et al., Biochem. Pharmacol., 1984, 33, 47).
(§2) The affinity and the inhibitory activity of the aglycone digitoxigenin (DIGI), dihydrodigitoxigenin 20(S) (DIGI 20(S)) and dihydrodigitoxigenin 20(R) (DIGI 20(R)) and some basic 3β-derivatives on the two tests are shown in the following table: […]

The target of assay [3] is T2, purified Na^+,K^+ -ATPase (Homo sapiens, UniProt P05023).
T2 construct: Na^+,K^+ -ATPase receptor purified according to Jorghensen; from tissue
Description: inhibition of the activity of the purified Na^+,K^+ -ATPase (hydrolysis of ^32 P-ATP). The format is biochemical.
Source text: as §1, §2

Setting [4] is: ^3 H-ouabain displacement, purified Na^+,K^+ -ATPase, read-out: Binding ^3 H-Ouab. Displacement log IC50 (converted).
The mark [5] stands for this setting: % hydrolysis of ^32 P-ATP, purified Na^+,K^+ -ATPase, read-out: Inhibitory Activity log IC50 (converted).

By IC50 is commonly meant the concentration that inhibits the measured activity by half. Consider `CN(C)CCOCCO[C@H]1CC[C@@]2(C)[C@H](CC[C@@H]3[C@@H]2CC[C@]2(C)[C@@H](C4=CC(=O)OC4)CC[C@]32O)C1` [Comp. I-e, 3β-(2-(2-dimethylaminoethoxy)ethoxy)-14β-hydroxy-5β-card-20(22)-enolide], for which, in assay [1], the “SBP (systolic blood pressure)” value is given as 149 +/- 4.8 mm Hg and the “HR (heart rate)” value was 395 +/- 10.0 beats/min. The IC50 in assay [2] is 100 nM. Further, the IC50 in assay [3] is 1000 nM.
Consider `C[C@]12CC[C@H](SCCCN3CCNCC3)C[C@H]1CC[C@@H]1[C@@H]2CC[C@]2(C)[C@@H](C3=CC(=O)OC3)CC[C@]12O` [Comp. I-r, 3β-(3-(1-Piperazinyl)propylthio)-14β-hydroxy-5β-card-20(22)-enolide], for which the IC50 is 316 nM in assay [2] and 631 nM in assay [3].
Regarding `C[C@]12CC[C@H](SCC(O)CO)C[C@H]1CC[C@@H]1[C@@H]2CC[C@]2(C)[C@@H](C3=CC(=O)OC3)CC[C@]12O` (stereo partly drawn) [Comp. I-s, 3β-(2,3-Dihydroxypropylthio)-14β-hydroxy-5β-card-20(22)-enolide], in assay [1], the “SBP (systolic blood pressure)” value is 149 +/- 4.1 mm Hg and the “HR (heart rate)” value is given as 394 +/- 6.3 beats/min. This molecule had an IC50 in assay [2] of 79.4 nM. The molecule further had an IC50 in assay [3] of 631 nM.
Take `C[C@]12CC[C@H](SCC[N+](C)(C)C)C[C@H]1CC[C@@H]1[C@@H]2CC[C@]2(C)[C@@H](C3=CC(=O)OC3)CC[C@]12O` [Comp. I-p, 3β-(2-(Trimethylammonium)ethylthio)-14β-hydroxy-5β-card-20(22)-enolide chloride]: in assay [1], the “SBP (systolic blood pressure)” value is recorded as 150 +/- 3.5 mm Hg and the “HR (heart rate)” value is reported as 378 +/- 9.3 beats/min. In assay [2], the IC50 is 100 nM. In assay [3], this molecule showed an IC50 of 794 nM.
On to `C[C@]12CC[C@H](SCCN)C[C@H]1CC[C@@H]1[C@@H]2CC[C@]2(C)[C@@H]([C@H]3COC(=O)C3)CC[C@]12O` [Comp. I-j, 3β-(2-Aminoethylthio)-14β-hydroxy-5β-20(S) cardanolide oxalate], for which the IC50 was 316 nM in assay [2] (setting [4]) and 3160 nM in assay [3] (setting [5]).
Regarding `C[C@]12CC[C@H](OCCCN)C[C@H]1CC[C@@H]1[C@@H]2CC[C@]2(C)[C@@H](C3=CC(=O)OC3)CC[C@]12O` [Comp. I-d, 3β-(3-Aminopropoxy)-14β-hydroxy-5β-card-20(22)-enolide oxalate], in assay [1], the “SBP (systolic blood pressure)” value is 148 +/- 3.2 mm Hg. For the same molecule, in assay [1], the “HR (heart rate)” value was 388 +/- 12.0 beats/min. Further, the concentration for half-maximal inhibition (IC50) in assay [2] is 126 nM; in assay [3], 631 nM.
Take `C[C@]12CC[C@H](SCCN)C[C@H]1CC[C@@H]1[C@@H]2CC[C@]2(C)[C@@H](C3=CC(=O)OC3)CC[C@]12O` [Comp. I-i, 3β-(2-Aminoethylthio)-14β-hydroxy-5β-card-20(22)-enolide oxalate]: the IC50 is 100 nM in assay [2] and 631 nM in assay [3].
For the molecule `C[C@]12CC[C@H](OCC[N+](C)(C)C)C[C@H]1CC[C@@H]1[C@@H]2CC[C@]2(C)[C@@H](C3=CC(=O)OC3)CC[C@]12O` [Comp. I-c, 3β-(2-(trimethylammonium)ethoxy)-14β-hydroxy-5β-card-20(22)-enolide chloride], in assay [1], the “SBP (systolic blood pressure)” value is given as 152 +/- 5.0 mm Hg and the “HR (heart rate)” value is given as 375 +/- 9.0 beats/min. In assay [2], this molecule showed an IC50 of 251 nM. For the same molecule, it took 501 nM to reach half-maximal inhibition in assay [3] (IC50).
For the molecule `C[C@]12CC[C@H](SCCCN3CCCC3)C[C@H]1CC[C@@H]1[C@@H]2CC[C@]2(C)[C@@H](C3=CC(=O)OC3)CC[C@]12O` [Comp. I-q, 3β-(3-(1-Pyrrolidinyl)propylthio)-14β-hydroxy-5β-card-20(22)-enolide oxalate], the results for the IC50 in assay [2] and in assay [3] were 158 nM and 251 nM, respectively.
Take `C[C@]12CC[C@H](SCCCN)C[C@H]1CC[C@@H]1[C@@H]2CC[C@]2(C)[C@@H]([C@H]3COC(=O)C3)CC[C@]12O` [Comp. I-l, 3β-(3-Aminopropylthio)-14β-hydroxy-5β-20(S)-cardanolide oxalate]: in assay [1], the “SBP (systolic blood pressure)” value is 147 +/- 4.8 mm Hg and the “HR (heart rate)” value is recorded as 390 +/- 10.0 beats/min. In assay [2] (setting [4]), the IC50 is 251 nM. The IC50 in assay [3] (setting [5]) was 2000 nM.
Consider `C[C@]12CC[C@H](O)C[C@H]1CC[C@@H]1[C@@H]2CC[C@]2(C)[C@@H]([C@H]3COC(=O)C3)CC[C@]12O` [DIGI 20(S), dihydrodigitoxigenin 20(S), reference compound], for which the figures for the IC50 in assay [2] and in assay [3] were 1580 nM and 2510 nM, respectively.
As to `C[C@]12CC[C@H](OCCC(=N)N)C[C@H]1CC[C@@H]1[C@@H]2CC[C@]2(C)[C@@H](C3=CC(=O)OC3)CC[C@]12O` [Comp. I-f, 3β-(2-Amidinoethoxy)-14β-hydroxy-5β-card-20(22)-enolide oxalate], in assay [1], the “SBP (systolic blood pressure)” value is given as 153 +/- 5.1 mm Hg and the “HR (heart rate)” value is 378 +/- 8.5 beats/min. The IC50 in assay [2] was 158 nM. Further, in assay [3], 1580 nM corresponded to half-maximal inhibition (IC50).
In the case of `CN(C)CCCO[C@H]1CC[C@@]2(C)[C@H](CC[C@@H]3[C@@H]2CC[C@]2(C)[C@@H](C4=CC(=O)OC4)CC[C@]32O)C1` [Comp. I-b, 3β-(3-Dimethylaminopropoxy)-14β-hydroxy-5β-card-20(22)-enolide], the IC50 was 200 nM in assay [2] and 5010 nM in assay [3].
Consider `C[C@]12CC[C@H](SCCCN)C[C@H]1CC[C@@H]1[C@@H]2CC[C@]2(C)[C@@H]([C@@H]3COC(=O)C3)CC[C@]12O` [Comp. I-m, 3β-Aminopropylthio )-14β-hydroxy-5β-20(R)-cardanolide oxalate], for which the figures for the concentration for half-maximal inhibition (IC50) in assay [2] (setting [4]) and in assay [3] (setting [5]) were 398 nM and 2510 nM, respectively.
Regarding `C[C@]12CC[C@H](O)C[C@H]1CC[C@@H]1[C@@H]2CC[C@]2(C)[C@@H]([C@@H]3COC(=O)C3)CC[C@]12O` [DIGI 20(R), dihydrodigitoxigenin 20(R), reference compound], the IC50 is 2510 nM in assay [2] and 7940 nM in assay [3].
In the same order, the values of `C[C@]12CC[C@H](OCCN3CCCC3)C[C@H]1CC[C@@H]1[C@@H]2CC[C@]2(C)[C@@H](C3=CC(=O)OC3)CC[C@]12O` [Comp. I-a, 3β-(2-(1-Pyrrolidinyl)ethoxy)-14β-hydroxy-5β-card-20(22)-enolide] are 63.1 nM and 251 nM.
`C[C@]12CC[C@H](O)C[C@H]1CC[C@@H]1[C@@H]2CC[C@]2(C)[C@@H](C3=CC(=O)OC3)CC[C@]12O` [DIGI, digitoxigenin]: in assay [1], the “SBP (systolic blood pressure)” value was 173 +/- 4.0 mm Hg and the “HR (heart rate)” value is recorded as 380 +/- 10.0 beats/min. Also, the half-inhibitory concentration (IC50) in assay [2] was 316 nM. In assay [3], inhibition was half-maximal at 316 nM (IC50).
In the case of `C[C@]12CC[C@H](SCCN3CCCC3)C[C@H]1CC[C@@H]1[C@@H]2CC[C@]2(C)[C@@H](C3=CC(=O)OC3)CC[C@]12O` [Comp. I-n, 3β-(2-(1-Pyrrolidinyl)ethylthio)-14β-hydroxy-5β-card-20(22)-enolide sesquioxalate], the IC50 in assay [2] was 200 nM; in assay [3], 398 nM.
Take `C[C@]12CC[C@H](SCC(O)CN)C[C@H]1CC[C@@H]1[C@@H]2CC[C@]2(C)[C@@H](C3=CC(=O)OC3)CC[C@]12O` (stereo partly drawn) [Comp. I-u, 3β-(3-Amino-2-hydroxypropylthio)-14β-hydroxy-5β-card-20(22)-enolide]: in assay [1], the “SBP (systolic blood pressure)” value is listed as 152 +/- 5.2 mm Hg and the “HR (heart rate)” value is reported as 377 +/- 9.0 beats/min. For the same molecule, the IC50 in assay [2] is 50.1 nM. Also, in assay [3], half-maximal inhibition (IC50) required 251 nM.
In the case of `C[C@]12CC[C@H](SCC3CO3)C[C@H]1CC[C@@H]1[C@@H]2CC[C@]2(C)[C@@H](C3=CC(=O)OC3)CC[C@]12O` (stereo partly drawn) [Comp. I-h, 3β-(2,3-Epoxy)propylthio-14β-hydroxy-5β-card-20(22)-enolide], in assay [1], the “SBP (systolic blood pressure)” value is listed as 157 +/- 6.0 mm Hg. Moreover, in assay [1], the “HR (heart rate)” value was 382 +/- 6.8 beats/min. The IC50 in assay [2] was 63.1 nM; in assay [3] it was 631 nM.
For the molecule `C[C@]12CC[C@H](SCCCN)C[C@H]1CC[C@@H]1[C@@H]2CC[C@]2(C)[C@@H](C3=CC(=O)OC3)CC[C@]12O` [Comp. I-k, 3β-(3-Aminopropylthio)-14β-hydroxy-5β-card-20(22)-enolide oxalate], in assay [1], the “SBP (systolic blood pressure)” value is recorded as 155 +/- 4.2 mm Hg. For the same molecule, the “HR (heart rate)” value in assay [1] is reported as 385 +/- 11.0 beats/min. Also, the IC50 in assay [2] is 79.4 nM; in assay [3], 501 nM.
